# Laboratory results reported in US20250120961A1, “P53 MODULATORS” (Nested Therapeutics, Inc., priority 2023, published 2025).
# Target: His-tagged p53-Y220C DNA binding domain (Homo sapiens, UniProt P04637, Y220C)
# Assay: Biochemical p53-Y220C and DNA binding assay (HTRF)
# Settings: inflection point of 10 points dose titration, 4 parameter curve fit; p53-Y220C DBD 100 nM, biotinylated dsDNA 200 nM, 27 to 29° C.; read-out: HTRF IP
# From the text: Biological Example 1. Biochemical p53-Y220C and DNA Binding Assay
# The compounds of this invention can bind to p53-Y220C and increase the ability of the mutant p53 to bind to DNA at higher temperatures. His-tagged p53-Y220C DNA binding domain containing amino acid 94-312 is used to measure DNA binding activities in vitro with the sequence described below. (SEQ ID NO: 1: […]. Biotin labeled double strand DNA (dsDNA) containing consensus p53 binding sequence (SEQ ID NO: 2: Forward: 5′-(biotin)-[…]-3′; Reverse: 5′-(biotin)-[…]-3′) is used to measure protein-DNA binding activities. Compounds, His-tagged p53-Y220C DBD proteins (100 nM), and biotinylated dsDNA (200 nM) were mixed in ice-cold assay buffer containing DPBS, 20 mM NaCl, and 0.5% BAS, and incubated at 4° C. overnight in 384-well plate. Plates were transferred to incubator at 27 to 29° C. with constant shaking for 60 minutes. Equal volume of Homogeneous Time-Resolved Fluorescence (HTRF) dyes containing mAb anti-6HIS Tb cryptate gold and d2 labeled streptavidin in the assay buffer was added to each well and incubated at 27 to 29° C. with constant shaking for 60 minutes. The plate was read using Envision multimode plate reader. Reference compound 1 was used as high control and DMSO was used as low control. The percentage activation (A %) of protein-DNA binding by compounds was normalized by setting up high control (reference compound) as […] and low control (DMSO) as 0% (A %=(HTRF ratio of compound-HTRF ratio of low control)/(HTRF ratio of high control-HTRF ratio of low control)*500). 10 points dose titration curves for each compound were analyzed by 4 parameter curve fit and inflection point (IP) was reported. Reference compound 1 is shown below Table 1. Compounds of the invention are active in the HTRF assay. Data in Table 1 collected using Biological Example 1.
row,Structure (SMILES),EC50 [nM]
1,"CC[C@@H](CO)O/N=C/c1sc2c(N[C@@H]3CNC[C@@H]3F)cccc2c1CC(F)(F)F [Example 1-2, (E)-7-(((3R,4S)-4-fluoropyrrolidin-3-yl)amino)-3-(2,2,2-trifluoroethyl)benzo[b]thiophene-2-carbaldehyde O-((S)-1-hydroxybutan-2-yl) oxime]",> 1000
2,"OC(CO/N=C/c1sc2c(N[C@@H]3CNC[C@@H]3F)cccc2c1CC(F)(F)F)C(F)(F)F (stereo partly drawn) [Example 1-5, (E)-7-(((3R,4S)-4-fluoropyrrolidin-3-yl)amino)-3-(2,2,2-trifluoroethyl)benzo[b]thiophene-2-carbaldehyde O-(3,3,3-trifluoro-2-hydroxypropyl) oxime]",100 to 1000
3,"CC(C)(O)CO/N=C/c1sc2c(N[C@@H]3CNC[C@@H]3F)cccc2c1CC(F)(F)F [Example 1-7, (E)-7-(((3R,4S)-4-fluoropyrrolidin-3-yl)amino)-3-(2,2,2-trifluoroethyl)benzo[b]thiophene-2-carbaldehyde O-(2-hydroxy-2-methylpropyl) oxime]",< 100
4,"NCC(O)CO/N=C/c1sc2c(N[C@@H]3CNC[C@@H]3F)cccc2c1CC(F)(F)F (stereo partly drawn) [Example 1-8, (E)-7-(((3R,4S)-4-fluoropyrrolidin-3-yl)amino)-3-(2,2,2-trifluoroethyl)benzo[b]thiophene-2-carbaldehyde O-(3-amino-2-hydroxypropyl)oxime]",100 to 1000
5,"COCC(O)CO/N=C/c1sc2c(N[C@@H]3CNC[C@@H]3F)cccc2c1CC(F)(F)F (stereo partly drawn) [Example 1-10, (E)-7-(((3R,4S)-4-fluoropyrrolidin-3-yl)amino)-3-(2,2,2-trifluoroethyl)benzo[b]thiophene-2-carbaldehyde O-(2-hydroxy-3-methoxypropyl) oxime]",100 to 1000
6,"COCC(CO)O/N=C/c1sc2c(N[C@@H]3CNC[C@@H]3F)cccc2c1CC(F)(F)F (stereo partly drawn) [Example 1-11, (E)-7-(((3R,4S)-4-fluoropyrrolidin-3-yl)amino)-3-(2,2,2-trifluoroethyl)benzo[b]thiophene-2-carbaldehyde O-(1-hydroxy-3-methoxypropan-2-yl) oxime]",> 1000
7,"OC1(CO/N=C/c2sc3c(N[C@@H]4CNC[C@@H]4F)cccc3c2CC(F)(F)F)CCNC1 (stereo partly drawn) [Example 1-12, (E)-7-(((3R,4S)-4-fluoropyrrolidin-3-yl)amino)-3-(2,2,2-trifluoroethyl)benzo[b]thiophene-2-carbaldehyde O-((3-hydroxypyrrolidin-3-yl)methyl) oxime]",100 to 1000
8,"OCC1(O/N=C/c2sc3c(N[C@@H]4CNC[C@@H]4F)cccc3c2CC(F)(F)F)CCNC1 (stereo partly drawn) [Example 1-13, (E)-7-(((3R,4S)-4-fluoropyrrolidin-3-yl)amino)-3-(2,2,2-trifluoroethyl)benzo[b]thiophene-2-carbaldehyde O-(3-(hydroxymethyl)pyrrolidin-3-yl) oxime]",> 1000
9,"OC1(CO/N=C/c2sc3c(N[C@@H]4CNC[C@@H]4F)cccc3c2CC(F)(F)F)CCCC1 [Example 1-14, (E)-7-(((3R,4S)-4-fluoropyrrolidin-3-yl)amino)-3-(2,2,2-trifluoroethyl)benzo[b]thiophene-2-carbaldehyde O-((1-hydroxycyclopentyl)methyl) oxime]",100 to 1000
10,"OC1(CO/N=C/c2sc3c(N[C@@H]4CNC[C@@H]4F)cccc3c2CC(F)(F)F)CCCOC1 (stereo partly drawn) [Example 1-15, (E)-7-(((3R,4S)-4-fluoropyrrolidin-3-yl)amino)-3-(2,2,2-trifluoroethyl)benzo[b]thiophene-2-carbaldehyde O-((3-hydroxytetrahydro-2H-pyran-3-yl)methyl) oxime]",100 to 1000
11,"OCC1(O/N=C/c2sc3c(N[C@@H]4CNC[C@@H]4F)cccc3c2CC(F)(F)F)CCC1 [Example 1-19, (E)-7-(((3R,4S)-4-fluoropyrrolidin-3-yl)amino)-3-(2,2,2-trifluoroethyl)benzo[b]thiophene-2-carbaldehyde O-(1-(hydroxymethyl)cyclobutyl) oxime]",100 to 1000
12,"OCC1(O/N=C/c2sc3c(N[C@@H]4CNC[C@@H]4F)cccc3c2CC(F)(F)F)CCOCC1 [Example 1-21, (E)-7-(((3R,4S)-4-fluoropyrrolidin-3-yl)amino)-3-(2,2,2-trifluoroethyl)benzo[b]thiophene-2-carbaldehyde O-(4-(hydroxymethyl)tetrahydro-2H-pyran-4-yl) oxime]",> 1000
13,"CC(CO)(O/N=C/c1sc2c(N[C@@H]3CNC[C@@H]3F)cccc2c1CC(F)(F)F)c1ccccc1 (stereo partly drawn) [Example 1-23, (E)-7-(((3R,4S)-4-fluoropyrrolidin-3-yl)amino)-3-(2,2,2-trifluoroethyl)benzo[b]thiophene-2-carbaldehyde O-(1-hydroxy-2-phenylpropan-2-yl) oxime]",> 1000

# The next lines start with the values.
row,EC50 [nM],Structure (SMILES)
1,> 1000,"CC[C@H](CO)O/N=C/c1sc2c(NC3CNCC3F)cccc2c1CC(F)(F)F (stereo in doubt) [Example 1-4, (E)-7-(((3S,4R)-4-fluoropyrrolidin-3-yl)amino)-3-(2,2,2-trifluoroethyl)benzo[b]thiophene-2-carbaldehyde O-((R)-1-hydroxybutan-2-yl) oxime]"
2,100 to 1000,"CC(O)(CO/N=C/c1sc2c(N[C@@H]3CNC[C@@H]3F)cccc2c1CC(F)(F)F)c1ccccc1 (stereo in doubt) [Example 1-24, (E)-7-(((3R,4S)-4-fluoropyrrolidin-3-yl)amino)-3-(2,2,2-trifluoroethyl)benzo[b]thiophene-2-carbaldehyde O-(2-hydroxy-2-phenylpropyl) oxime]"
3,100 to 1000,"CC[C@@H](O)CO/N=C/c1sc2c(N[C@@H]3CNC[C@@H]3F)cccc2c1CC(F)(F)F [Example 1-1, (E)-7-(((3R,4S)-4-fluoropyrrolidin-3-yl)amino)-3-(2,2,2-trifluoroethyl)benzo[b]thiophene-2-carbaldehyde O-((R)-2-hydroxybutyl) oxime]"
4,100 to 1000,"CC[C@H](O)CO/N=C/c1sc2c(N[C@@H]3CNC[C@@H]3F)cccc2c1CC(F)(F)F [Example 1-3, (E)-7-(((3R,4S)-4-fluoropyrrolidin-3-yl)amino)-3-(2,2,2-trifluoroethyl)benzo[b]thiophene-2-carbaldehyde O-((S)-2-hydroxybutyl) oxime]"
5,100 to 1000,"OCC(O)CO/N=C/c1sc2c(N[C@@H]3CNC[C@@H]3F)cccc2c1CC(F)(F)F (stereo partly drawn) [Example 1-6, (E)-7-(((3R,4S)-4-fluoropyrrolidin-3-yl)amino)-3-(2,2,2-trifluoroethyl)benzo[b]thiophene-2-carbaldehyde O-(2,3-dihydroxypropyl) oxime]"
6,> 1000,"NCC(CO)O/N=C/c1sc2c(N[C@@H]3CNC[C@@H]3F)cccc2c1CC(F)(F)F (stereo partly drawn) [Example 1-9, (E)-7-(((3R,4S)-4-fluoropyrrolidin-3-yl)amino)-3-(2,2,2-trifluoroethyl)benzo[b]thiophene-2-carbaldehyde O-(1-amino-3-hydroxypropan-2-yl) oxime]"
7,> 1000,"OCC1(O/N=C/c2sc3c(N[C@@H]4CNC[C@@H]4F)cccc3c2CC(F)(F)F)CCCOC1 (stereo partly drawn) [Example 1-16, (E)-7-(((3R,4S)-4-fluoropyrrolidin-3-yl)amino)-3-(2,2,2-trifluoroethyl)benzo[b]thiophene-2-carbaldehyde O-(3-(hydroxymethyl)tetrahydro-2H-pyran-3-yl) oxime]"
8,100 to 1000,"OC1CCCC1O/N=C/c1sc2c(N[C@@H]3CNC[C@@H]3F)cccc2c1CC(F)(F)F (stereo partly drawn) [Example 1-17, (E)-7-(((3R,4S)-4-fluoropyrrolidin-3-yl)amino)-3-(2,2,2-trifluoroethyl)benzo[b]thiophene-2-carbaldehyde O-(2-hydroxycyclopentyl) oxime]"
9,100 to 1000,"OC1(CO/N=C/c2sc3c(N[C@@H]4CNC[C@@H]4F)cccc3c2CC(F)(F)F)CCC1 [Example 1-18, (E)-7-(((3R,4S)-4-fluoropyrrolidin-3-yl)amino)-3-(2,2,2-trifluoroethyl)benzo[b]thiophene-2-carbaldehyde O-((1-hydroxycyclobutyl)methyl) oxime]"
10,100 to 1000,"OC1(CO/N=C/c2sc3c(N[C@@H]4CNC[C@@H]4F)cccc3c2CC(F)(F)F)CCOCC1 [Example 1-20, (E)-7-(((3R,4S)-4-fluoropyrrolidin-3-yl)amino)-3-(2,2,2-trifluoroethyl)benzo[b]thiophene-2-carbaldehyde O-((4-hydroxytetrahydro-2H-pyran-4-yl)methyl) oxime]"
11,100 to 1000,"CC(O)(CO/N=C\c1sc2c(N[C@@H]3CNC[C@@H]3F)cccc2c1CC(F)(F)F)c1ccccc1 (stereo partly drawn) [Example 1-22, (Z)-7-(((3R,4S)-4-fluoropyrrolidin-3-yl)amino)-3-(2,2,2-trifluoroethyl)benzo[b]thiophene-2-carbaldehyde O-(2-hydroxy-2-phenylpropyl) oxime]"
